pIC50: −log10 of the molar value. Several values for one entry are separate records, joined by “and”; a condition that tells them apart may be missing. Identical values can stand only once. Like-named read-outs stand apart in the source and are kept apart here.
How the values were obtained:
[1] = test system: A2780cisR (Cisplatin resistant ovarian cancer cells); experiment: XTT cell proliferation assay, A2780cisR; format: cell-based, human; conditions: for pIC50: Table 1, XTT, 72 h treatment, read-out: IC50 anti-proliferative activity A2780cisR; for increased anti-proliferative potency compared to Cisplatin, A2780cisR: ratio of IC50s vs Cisplatin
Protocol: (§1) (2,3-bis-(2-methoxy-4-nitro-5-sulfophenyl)-2H-tetrazolium-5-carboxanilide) (XTT) assay was used as previously described to evaluate the cytotoxicity of the different Cisplatin derivatives. Briefly, cells (1.5 × 10^4) were plated in RPMI 1640 medium using 96-well plates for 24 h, and then treated for an additional 72 h with the different Cisplatin derivatives. A total of 50 μl of XTT solution were added to each well and incubated for 3 h at 37 °C. The optical density was measured by a multi-well plate spectrophotometer at 450 nanometers with a references’ wavelength of 630 nm. The concentrations inhibiting cell proliferation by 50 % (IC50s) of all tested derivatives were calculated. The experiment was performed in triplicate, and standard deviations were also calculated.

[2] = test system: A2780 (Cisplatin sensitive ovarian cancer cells); experiment: XTT cell proliferation assay, A2780; format: cell-based, human; conditions: for pIC50: XTT
Protocol: as §1

[3] = test system: human embryonic kidney cell line 293A (HEK293A); experiment: XTT cell proliferation assay, HEK293A; format: cell-based; conditions: for pIC50: Table 2, XTT, non-cancerous cells; for selectivity: potency against A2780 compared to HEK293A: ratio of XTT IC50s
Protocol: as §1

[4] = test system: human embryonic kidney cell line 293 T (HEK293T); experiment: XTT cell proliferation assay, HEK293T; format: cell-based; conditions: for pIC50: Table 2, XTT, non-cancerous cells; for selectivity: potency against A2780 compared to HEK293T: ratio of XTT IC50s
Protocol: as §1

A2780 cells = experiment: Clonigenicity assay (soft agar), A2780; format: cell-based, human; conditions: for pIC50: soft agar, 2 weeks, read-out: IC50 of clonigenicity inhibition A2780; for clonigenicity IC50s values lower than Cisplatin: ovarian cancer cell lines tested (A2780, A2780cisR)
Protocol: (§2) Clonigenicity assay was performed as previously describe. Briefly, cells (1 × 10^4) in 1 ml RPMI 10 % FBS medium were diluted in 1 ml of 0.6 % agar to give a final agar concentration of 0.3 % agar. The cells-agar mixture was poured over a hardened agar base in wells of 12-well plates and allowed to solidify. Once the top layer solidified, 1 ml of medium containing different treatments was placed on top to keep the agar moist. The cells were grown at 37 °C in a 5 % CO2 humidified atmosphere until colonies were visible (2 weeks). The plates were stained for 4 h with 5 mg/ml 3-(4,5-dimethylthiazol-2-yl)-2,5-diphenyltetrazolium bromide (MTT), and the dye was extracted with 1 ml solubilization buffer (20 % SDS, 50 % N,N-dimethyl-formamide, 25 mM HCL) for 24 h. The optical density was measured at 570 nm wavelength with a reference wavelength of 630 nm.

[5] = test system: PARP cleavage in A2780cisR cells; experiment: Apoptosis assay: PARP cleavage by immunoblot, A2780cisR; format: cell-based, human; conditions: for concentration causing significant PARP cleavage, A2780cisR: 30 h treatment
Protocol: (§3) To monitor apoptosis potential of Cisplatin derivatives we followed cleavage of poly ADP ribose polymerase (PARP) protein [18]. Briefly, cells (2 × 10^5 cells/ml) were treated with Cisplatin derivatives for the indicated time. Cells were collected, washed once with cold PBS, and lysed in buffer [10 mMTris-HCl (pH 7.4), 100 mMNaCl, 1 mM EDTA, 1 mM EGTA, 1 mM NaF, 20 mM Na4P2O7, 2 mM Na3VO4, 1 % Triton x-100, 10 % Glycerol, 0.1 % sodium dodecyl sulfate (SDS), 0.5 % deoxycholate, 1 mM phenylmethylsulfonyl fluoride (PMSF), for 30 min at 4 °C. Cell lysate supernatants (40 μg protein/each) were resolved on 8 % SDS-polyacrylamide gel electrophoresis, transferred to nitrocellulose membranes, and analyzed by immune-blotting with an anti-cleaved PARP antibody (Cell signaling technology, USA ). Anti α-tubulin antibody (Santa Cruz Co., CA, USA) was used as a loading control.

[6] = test system: human foreskin fibroblast cells (HFF); experiment: XTT cell proliferation assay, HFF; format: cell-based; conditions: for pIC50: Table 2, XTT, non-cancerous cells; for ratio of IC50s against none cancerous cells (HFF) to the cancerous cell line (A2780): ratio of XTT IC50s
Protocol: as §1

[7] = test system: K562; chronic myelogenous leukemia (CML) cell lines; experiment: XTT cell proliferation assay, K562; format: cell-based; conditions: for pIC50: Table 1, XTT, 72 h treatment, read-out: IC50 anti-proliferative activity K562; for enhanced anti-CML activity compared to Cisplatin, K562: ratio of IC50s vs Cisplatin
Protocol: as §1

[8] = test system: cleaved PARP in A2780cisR cells; experiment: PathScan cleaved PARP (Asp214) sandwich ELISA, A2780cisR; format: cell-based, human; conditions: 30 h
Protocol: Cell lysates prepared from treated ovarian cancer cells (30 h) were used for quantitative measurement of cleaved PARP according to manufacturer’s instructions (Cell signaling technology, USA). In our experiments, 20 μg of total lysate proteins from each sample were utilized.

[9] = test system: PARP cleavage in A2780 cells; experiment: Apoptosis assay: PARP cleavage by immunoblot, A2780; format: cell-based, human; conditions: 30 h treatment
Protocol: as §3

A2780cisR cells = experiment: Clonigenicity assay (soft agar), A2780cisR; format: cell-based, human; conditions: 2 weeks, read-out: IC50 of clonigenicity inhibition A2780cisR
Protocol: as §2

[10] = Table 1, 72 h treatment, read-out: IC50 anti-proliferative activity A2780

| SMILES | pIC50 [1] | pIC50 [2, 10] | pIC50 ([2]; Table 2, read-out: IC50 A2780) | pIC50 [3] | pIC50 [4] | pIC50 (A2780 cells) | pIC50 [6] | ratio of IC50s against none cancerous cells (HFF) to the cancerous cell line (A2780) [6] | pIC50 [7] | increase in levels of cleaved PARP compared to untreated sample ([8]; 25 microM) [fold] | concentration causing significant PARP cleavage, A2780 [9] | pIC50 (A2780cisR cells) | clonigenicity IC50s values lower than Cisplatin (A2780 cells) | increased anti-proliferative potency compared to Cisplatin, A2780cisR [1] | concentration causing significant PARP cleavage, A2780cisR [5] | selectivity: potency against A2780 compared to HEK293A [3] | enhanced anti-CML activity compared to Cisplatin, K562 [7] [folds] | selectivity: potency against A2780 compared to HEK293T [4] | increase in levels of cleaved PARP compared to untreated sample ([8]; 1 microM) [fold] | increase in levels of cleaved PARP compared to untreated sample ([8]; 5 microM) [fold] | further results |
| --- | --- | --- | --- | --- | --- | --- | --- | --- | --- | --- | --- | --- | --- | --- | --- | --- | --- | --- | --- | --- | --- |
| N.N.O=C([O-])C1(C(=O)[O-])CCC1.[Pt+2] [Carboplatin, reference compound] | 3.96 | 4.77 | 4.77 | 3.98 | 4.35 |  |  |  |  |  |  |  |  |  |  |  |  |  |  |  |  |
| N.N.[Cl][Pt][Cl] [Cisplatin, cis-Diamminedichloroplatinum (II)] | 4.72 | 5.89 | 5.89 | 4.79 | 5.49 | 5.64 | 4.08 | 63 | 5.28 | 2.4 | 25 µM | 5.38 |  |  |  |  |  |  |  |  | PARP cleavage in A2780cisR ([5]; 30 h, concentrations below 100 microM): very minimal cleavage of PARP |
| O=C1[O][Pt]2([NH][C@@H]3CCCC[C@H]3[NH]2)[O]C1=O [Oxaliplatin, reference compound] | 4.81 | 4.90 |  |  |  | 6.74 |  |  | 5.49 |  |  | 5.80 |  |  |  |  |  |  |  |  |  |
| CCCCCCCC/C=C\CCCCCCCC(=O)[O][Pt]([NH2])([NH2])([Cl])([Cl])[O]C(=O)CCCCCCC/C=C\CCCCCCCC [RJY3] | 4.82 | < 4.70 |  |  |  | 7.15 |  |  | 5.03 |  |  |  |  |  |  |  |  |  |  |  |  |
| CCCCCCCCCCCC(=O)[O][Pt]([NH2])([NH2])([Cl])([Cl])[O]C(=O)CCCCCCCCCCC [RJY6, Cis, cis, trans-[diamminedichloro-bis-lauratoplatinum(IV)]] | 5.48 | 6.15 | 6.15 | 4.76 | 4.93 | 7.82 | 4.09 | 117 and 117.2 | 5.89 | 21 | above 25 microM | 7.89 | 20–30 folds | 5-6 fold | above 25 microM | 24 fold | 4 | 16 fold | 2 | 3 |  |
| CCCCCCCC(=O)[O][Pt]([NH2])([NH2])([Cl])([Cl])[O]C(=O)CCCCCCC [RJY13, Cis, cis, trans-[diamminedichloro-bis-octanoatoplatinum (IV)]] | 6.24 | 7.10 | 7.10 | 6.15 | 6.30 | 8.00 | 5.62 | 30 | 6.15 | 37 | 5 µM | 8.00 | 20–30 folds | 33 fold | 5 µM | about 10 fold | 7 | about 10 fold | 4 | 34 | increased anti-proliferative potency compared to Cisplatin, A2780 ([2]; ratio of IC50s vs Cisplatin): 16 fold |

From paper PMC4763415, “Platinum (IV)-fatty acid conjugates overcome inherently and acquired Cisplatin resistant cancer cell lines: an in-vitro study” (BMC Cancer, 2016)
